In patent publication US12303509B2, “Compounds for the treatment of BRAF-associated diseases and disorders” (Pfizer Inc., priority 2020, dated 2025):
Structures can show the parent of a compound that is named as a salt.

Legend:
[1] = target: full-length FLAG-tagged B-Raf(V600E) (Homo sapiens (Human), UniProt P15056, V600E); assay: BRAF V600E enzyme assay (TR-FRET competitive displacement); type: binding; conditions: averaged IC50; TR-FRET tracer displacement, 60 min
In short: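 Displacement of 50 nM Tracer 1710 from 5 nM full-length N-terminally FLAG-tagged B-Raf(V600E), detected by TR-FRET with 0.5 nM Eu anti-FLAG antibody, in 25 mM HEPES pH 7.4, 10 mM MgCl2, 2% DMSO; 60 min at ~22 °C. Compounds 11-point, 3-fold from 10 μM; IC50 from 4-parameter fit at 50 POC.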

BCRP = BCRP (Homo sapiens (Human), UniProt Q9UNQ0); assay: BCRP MDCKII permeability assay: efflux ratio; type: in vitro ADME; conditions: dog
P-gp (MDR1) = P-gp (MDR1) (Homo sapiens (Human), UniProt P08183); assay: MDR1 LLC-PK1 permeability assay: efflux ratio; type: in vitro ADME; conditions: pig
From the text: (§1) Final organic concentration in the assay was 1%.

H1755 cells = assay: Cellular phospho-ERK inhibition assay in H1755 cells; type: cell-based; conditions: Homo sapiens, NCI-H1755, 2 hours treatment, read-out: H1755 Cell IC50
In short: (§2)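 A375 (DMEM) or H1755 (RPMI) cells in 10% FBS treated 2 h at 37 °C with 9-point series, 66 pM–10 μM, 0.25% DMSO. Phospho-ERK1/2 (Thr202/Tyr204) measured by In Cell Western, normalised to GAPDH and to DMSO and 10 μM binimetinib controls; IC50 by 4-parameter fit.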

A375 cells = assay: Cellular phospho-ERK inhibition assay in A375 cells; type: cell-based; conditions: Homo sapiens, A-375, A375 cells (head prints A357), 2 hours treatment, read-out: A357 cell IC50
In short: as §2

[2] = MDR1 LLC-PK1 and BCRP MDCKII permeability assay: permeability coefficient (Papp); type: in vitro ADME
From the text: as §1

Chain of full-length FLAG-tagged B-Raf(V600E) (P15056 whole entry V600E): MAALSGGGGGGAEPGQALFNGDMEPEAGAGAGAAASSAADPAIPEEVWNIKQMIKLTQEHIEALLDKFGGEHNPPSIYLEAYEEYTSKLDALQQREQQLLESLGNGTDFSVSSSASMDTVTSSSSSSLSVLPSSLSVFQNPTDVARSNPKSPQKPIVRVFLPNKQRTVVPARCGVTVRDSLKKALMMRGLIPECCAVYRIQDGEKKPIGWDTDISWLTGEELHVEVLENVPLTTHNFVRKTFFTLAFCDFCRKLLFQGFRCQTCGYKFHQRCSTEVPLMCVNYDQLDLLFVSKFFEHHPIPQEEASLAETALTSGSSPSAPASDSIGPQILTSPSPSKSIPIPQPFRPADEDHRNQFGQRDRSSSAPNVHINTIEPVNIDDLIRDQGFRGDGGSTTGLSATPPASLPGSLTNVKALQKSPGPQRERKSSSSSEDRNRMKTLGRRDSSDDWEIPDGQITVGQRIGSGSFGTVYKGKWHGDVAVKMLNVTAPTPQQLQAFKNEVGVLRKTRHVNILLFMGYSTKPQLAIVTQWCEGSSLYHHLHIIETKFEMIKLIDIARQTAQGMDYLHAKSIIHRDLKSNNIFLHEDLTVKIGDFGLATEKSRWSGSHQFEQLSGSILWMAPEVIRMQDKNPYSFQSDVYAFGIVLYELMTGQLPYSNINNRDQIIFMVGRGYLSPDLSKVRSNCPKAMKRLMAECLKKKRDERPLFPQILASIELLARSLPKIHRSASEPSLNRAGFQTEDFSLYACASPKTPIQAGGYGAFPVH
Chain of BCRP (Q9UNQ0 whole entry): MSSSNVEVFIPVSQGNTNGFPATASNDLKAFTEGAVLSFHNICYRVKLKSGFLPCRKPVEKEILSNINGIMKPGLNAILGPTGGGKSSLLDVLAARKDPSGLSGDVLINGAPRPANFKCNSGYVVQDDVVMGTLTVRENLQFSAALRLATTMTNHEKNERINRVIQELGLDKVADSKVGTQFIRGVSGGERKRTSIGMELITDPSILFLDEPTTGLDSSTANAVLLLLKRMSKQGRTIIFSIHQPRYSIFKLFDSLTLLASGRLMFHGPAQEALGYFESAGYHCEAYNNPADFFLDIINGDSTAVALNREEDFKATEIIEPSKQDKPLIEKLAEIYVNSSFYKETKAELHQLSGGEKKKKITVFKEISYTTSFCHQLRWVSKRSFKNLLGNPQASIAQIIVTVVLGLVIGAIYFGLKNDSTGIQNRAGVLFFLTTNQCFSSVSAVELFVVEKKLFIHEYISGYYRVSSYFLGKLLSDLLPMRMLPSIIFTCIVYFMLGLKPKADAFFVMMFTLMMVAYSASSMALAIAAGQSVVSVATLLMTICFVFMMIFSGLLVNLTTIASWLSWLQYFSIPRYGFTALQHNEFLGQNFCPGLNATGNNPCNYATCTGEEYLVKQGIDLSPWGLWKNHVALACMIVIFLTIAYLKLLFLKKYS
Chain of P-gp (MDR1) (P08183 whole entry, species assumed): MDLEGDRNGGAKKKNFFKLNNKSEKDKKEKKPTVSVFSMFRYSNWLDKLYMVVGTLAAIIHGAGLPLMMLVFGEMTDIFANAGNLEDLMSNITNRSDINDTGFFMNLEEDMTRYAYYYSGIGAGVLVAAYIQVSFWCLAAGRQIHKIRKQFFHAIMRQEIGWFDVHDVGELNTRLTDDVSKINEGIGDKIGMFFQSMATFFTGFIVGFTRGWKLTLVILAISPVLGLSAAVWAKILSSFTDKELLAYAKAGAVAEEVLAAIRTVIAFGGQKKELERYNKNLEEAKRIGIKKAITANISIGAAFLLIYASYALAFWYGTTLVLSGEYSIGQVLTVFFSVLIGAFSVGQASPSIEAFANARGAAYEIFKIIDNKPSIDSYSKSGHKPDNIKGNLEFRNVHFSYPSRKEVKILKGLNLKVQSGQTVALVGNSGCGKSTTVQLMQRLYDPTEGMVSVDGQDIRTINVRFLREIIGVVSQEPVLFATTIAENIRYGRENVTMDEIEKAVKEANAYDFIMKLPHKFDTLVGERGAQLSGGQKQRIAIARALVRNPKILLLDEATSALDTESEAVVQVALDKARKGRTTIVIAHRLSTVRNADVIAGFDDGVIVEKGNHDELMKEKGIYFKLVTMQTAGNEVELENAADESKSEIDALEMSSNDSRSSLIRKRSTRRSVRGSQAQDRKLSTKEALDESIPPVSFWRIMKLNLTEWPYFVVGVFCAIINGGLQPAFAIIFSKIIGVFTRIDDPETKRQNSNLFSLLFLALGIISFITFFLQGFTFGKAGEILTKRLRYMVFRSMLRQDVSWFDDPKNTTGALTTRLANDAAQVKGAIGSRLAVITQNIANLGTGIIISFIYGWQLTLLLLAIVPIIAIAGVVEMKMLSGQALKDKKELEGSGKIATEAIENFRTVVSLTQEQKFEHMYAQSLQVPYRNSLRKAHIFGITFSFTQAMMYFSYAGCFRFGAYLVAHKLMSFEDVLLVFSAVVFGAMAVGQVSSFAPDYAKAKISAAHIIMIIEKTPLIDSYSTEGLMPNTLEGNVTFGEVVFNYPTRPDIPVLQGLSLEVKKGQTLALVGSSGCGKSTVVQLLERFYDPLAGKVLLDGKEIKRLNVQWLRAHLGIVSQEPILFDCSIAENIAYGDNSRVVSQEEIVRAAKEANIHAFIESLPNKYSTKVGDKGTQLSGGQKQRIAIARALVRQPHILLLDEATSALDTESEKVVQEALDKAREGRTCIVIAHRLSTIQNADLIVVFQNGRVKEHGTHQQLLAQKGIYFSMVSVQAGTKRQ

| IC50 [1] | efflux ratio at 2 h, 1 µM (BCRP) | efflux ratio at 2 h, 1 µM (P-gp (MDR1)) | IC50 (H1755 cells) | IC50 (A375 cells) | Papp at 2 h, 1 µM [2] | Compound |
| --- | --- | --- | --- | --- | --- | --- |
| 38 nM | 1.9 | 1.3 | 358 nM | 40 nM | 18 ×10⁻⁶ cm/s | Cc1c(Nc2c(F)ccc(NS(=O)(=O)N3CCCC3)c2F)ccc2ncn(C)c(=O)c12 [Example 113, N-(3-((3,5-dimethyl-4-oxo-3,4-dihydroquinazolin-6-yl)amino)-2,4-difluorophenyl)pyrrolidine-1-sulfonamide trifluoroacetate] |
| 16 nM | 5.2 | 2.2 | 174 nM | 36 nM | 31 ×10⁻⁶ cm/s | Cc1c(Nc2c(F)ccc(NS(=O)(=O)N3CC[C@@H](F)C3)c2F)ccc2ncn(C)c(=O)c12 [Example 114, (R)-N-(3-((3,5-dimethyl-4-oxo-3,4-dihydroquinazolin-6-yl)amino)-2,4-difluorophenyl)-3-fluoropyrrolidine-1-sulfonamide trifluoroacetate] |
| 17 nM | 1.3 | 1.1 | 10000 nM | 21 nM | 43 ×10⁻⁶ cm/s | Cc1c(Nc2c(F)ccc(NS(=O)(=O)N3CCC3)c2Cl)ccc2ncn(C)c(=O)c12 [Example 124, N-(2-chloro-3-((3,5-dimethyl-4-oxo-3,4-dihydroquinazolin-6-yl)amino)-4-fluorophenyl)azetidine-1-sulfonamide trifluoroacetate] |
| 5 nM | 1.6 | 1.2 | 1010 nM | 18 nM | 37 ×10⁻⁶ cm/s | Cc1c(Nc2c(F)ccc(NS(=O)(=O)N3CC(F)C3)c2Cl)ccc2ncn(C)c(=O)c12 [Example 125, N-(2-chloro-3-((3,5-dimethyl-4-oxo-3,4-dihydroquinazolin-6-yl)amino)-4-fluorophenyl)-3-fluoroazetidine-1-sulfonamide] |
| 16 nM | 1.3 | 1.5 | 128 nM | 25 nM | 49 ×10⁻⁶ cm/s | COC1CN(S(=O)(=O)Nc2ccc(F)c(Nc3ccc4ncn(C)c(=O)c4c3C)c2Cl)C1 [Example 128, N-(2-chloro-3-((3,5-dimethyl-4-oxo-3,4-dihydroquinazolin-6-yl)amino)-4-fluorophenyl)-3-methoxyazetidine-1-sulfonamide trifluoroacetate] |
| 7 nM | 6.4 | 1.4 | 327 nM | 68 nM | 33 ×10⁻⁶ cm/s | Cc1c(Nc2c(F)ccc(NS(=O)(=O)N3CC(F)(F)C3)c2Cl)ccc2ncn(C)c(=O)c12 [Example 134, N-(2-chloro-3-((3,5-dimethyl-4-oxo-3,4-dihydroquinazolin-6-yl)amino)-4-fluorophenyl)-3,3-difluoroazetidine-1-sulfonamide] |
| 3 nM | 5.1 | 1.9 | 189 nM | 22 nM | 29 ×10⁻⁶ cm/s | Cn1cnc2ccc(Nc3c(F)ccc(NS(=O)(=O)N4CC(F)(F)C4)c3Cl)c(Cl)c2c1=O [Example 135, N-(2-chloro-3-((5-chloro-3-methyl-4-oxo-3,4-dihydroquinazolin-6-yl)amino)-4-fluorophenyl)-3,3-difluoroazetidine-1-sulfonamide] |
| 6 nM | 18.3 | 3 | 89 nM | 7 nM | 24 ×10⁻⁶ cm/s | Cn1cnc2ccc(Nc3c(F)ccc(NS(=O)(=O)N4CC(F)(F)C4)c3Cl)c(F)c2c1=O [Example 136, N-(2-chloro-4-fluoro-3-((5-fluoro-3-methyl-4-oxo-3,4-dihydroquinazolin-6-yl)amino)phenyl)-3,3-difluoroazetidine-1-sulfonamide] |
| 3 nM | 3.1 | 3.1 | 26 nM | 6 nM | 33 ×10⁻⁶ cm/s | Cn1cnc2ccc(Nc3c(F)ccc(NS(=O)(=O)N4CC(COC(F)F)C4)c3Cl)c(Cl)c2c1=O [Example 138, N-(2-chloro-3-((5-chloro-3-methyl-4-oxo-3,4-dihydroquinazolin-6-yl)amino)-4-fluorophenyl)-3-((difluoromethoxy)methyl)azetidine-1-sulfonamide trifluoroacetate] |
| 27 nM | 1.8 | 2.4 | 854 nM | 426 nM | 22 ×10⁻⁶ cm/s | Cc1c(Nc2c(F)ccc(NS(=O)(=O)N3CC4C(F)C4C3)c2Cl)ccc2ncn(C)c(=O)c12 (stereo not drawn) [Example 148, N-(2-chloro-3-((3,5-dimethyl-4-oxo-3,4-dihydroquinazolin-6-yl)amino)-4-fluorophenyl)-6-fluoro-3-azabicyclo[3.1.0]hexane-3-sulfonamide] |
| 8 nM | 3.2 | 1.2 | 337 nM | 108 nM | 25 ×10⁻⁶ cm/s | Cc1c(Nc2c(F)ccc(NS(=O)(=O)N3CC4CC4(F)C3)c2Cl)ccc2ncn(C)c(=O)c12 (stereo not drawn) [Example 149, N-(2-chloro-3-((3,5-dimethyl-4-oxo-3,4-dihydroquinazolin-6-yl)amino)-4-fluorophenyl)-1-fluoro-3-azabicyclo[3.1.0]hexane-3-sulfonamide] |

Further lines, the compound ahead of its results:

| Compound | IC50 [1] | efflux ratio at 2 h, 1 µM (BCRP) | efflux ratio at 2 h, 1 µM (P-gp (MDR1)) | IC50 (H1755 cells) | IC50 (A375 cells) | Papp at 2 h, 1 µM [2] |
| --- | --- | --- | --- | --- | --- | --- |
| Cn1cnc2ccc(Oc3c(F)ccc(NS(=O)(=O)N4CC[C@H](F)C4)c3Cl)c(Cl)c2c1=O [Example 107, (S)-N-(2-chloro-3-((5-chloro-3-methyl-4-oxo-3,4-dihydroquinazolin-6-yl)oxy)-4-fluorophenyl)-3-fluoropyrrolidine-1-sulfonamide] | 1 nM | 1.9 | 2.7 | 116 nM | 8 nM | 30 ×10⁻⁶ cm/s |
| Cn1cnc2ccc(Oc3c(F)ccc(NS(=O)(=O)N4CC5CC5C4)c3Cl)c(Cl)c2c1=O (stereo not drawn) [Example 108, N-(2-chloro-3-((5-chloro-3-methyl-4-oxo-3,4-dihydroquinazolin-6-yl)oxy)-4-fluorophenyl)-3-azabicyclo[3.1.0]hexane-3-sulfonamide] | 1 nM | 0.8 | 1.2 | 1590 nM | 14 nM | 25 ×10⁻⁶ cm/s |
| CCN(C)S(=O)(=O)Nc1ccc(F)c(Oc2ccc3ncn(C)c(=O)c3c2Cl)c1Cl [Example 109, N-(2-chloro-3-((5-chloro-3-methyl-4-oxo-3,4-dihydroquinazolin-6-yl)oxy)-4-fluorophenyl)-(N-ethyl-N-methyl)-sulfamide] | 7 nM | 0.8 | 1.1 | 272 nM | 13 nM | 34 ×10⁻⁶ cm/s |
| CN(C)S(=O)(=O)Nc1ccc(F)c(Oc2ccc3ncn(C)c(=O)c3c2Cl)c1Cl [Example 110, N-(2-chloro-3-((5-chloro-3-methyl-4-oxo-3,4-dihydroquinazolin-6-yl)oxy)-4-fluorophenyl)-(N,N-dimethyl)-sulfamide] | 8 nM | 1.4 | 1.5 | 48 nM | 6 nM | 34 ×10⁻⁶ cm/s |
| COCC1CN(S(=O)(=O)Nc2ccc(F)c(Oc3ccc4ncn(C)c(=O)c4c3F)c2Cl)C1 [Example 121, N-(2-chloro-4-fluoro-3-((5-fluoro-3-methyl-4-oxo-3,4-dihydroquinazolin-6-yl)oxy)phenyl)-3-(methoxymethyl)azetidine-1-sulfonamide] | 9 nM | 6 | 1.9 | 18 nM | 7 nM | 35 ×10⁻⁶ cm/s |
| Cc1c(Nc2cc(F)cc(NS(=O)(=O)N3CCCC3)c2Cl)ccc2ncn(C)c(=O)c12 [Example 150, N-(2-chloro-3-((3,5-dimethyl-4-oxo-3,4-dihydroquinazolin-6-yl)amino)-5-fluorophenyl)pyrrolidine-1-sulfonamide] | 18 nM | 1.4 | 1.3 | 548 nM | 342 nM | 27 ×10⁻⁶ cm/s |
| Cc1c(Nc2cc(F)cc(NS(=O)(=O)N3CC[C@@H](F)C3)c2Cl)ccc2ncn(C)c(=O)c12 [Example 151, (R)-N-(2-chloro-3-((3,5-dimethyl-4-oxo-3,4-dihydroquinazolin-6-yl)amino)-5-fluorophenyl)-3-fluoropyrrolidine-1-sulfonamide] | 14 nM | 1.8 | 1.5 | 538 nM | 283 nM | 28 ×10⁻⁶ cm/s |
| CO[C@@H]1CCN(S(=O)(=O)Nc2cc(F)cc(Nc3ccc4ncn(C)c(=O)c4c3C)c2Cl)C1 [Example 152, (R)-N-(2-chloro-3-((3,5-dimethyl-4-oxo-3,4-dihydroquinazolin-6-yl)amino)-5-fluorophenyl)-3-methoxypyrrolidine-1-sulfonamide] | 29 nM | 1.4 | 1.3 | 329 nM | 305 nM | 37 ×10⁻⁶ cm/s |
